Measurements: patent publication US20110070232A1, “Combination Therapy with an Antitumor Alkaloid” (Pharma Mar, S.A., priority 2008, published 2011)
Where two headings read alike, the source gives them in different places.

Experiments:
[1] = test system: MRI-H-254 tumors; type: in vivo, mice
Method: Female athymic nude mice (Harlan Sprague Dawley, Madison, Wis.) were utilized for all experiments. Animals were housed in ventilated rack caging with food and water ad libitum. The mice were acclimated for at least 5 days prior to tumor implantation with tumor fragments.
(§1) Treatments were initiated on DPI 16.
(§2) Tumor size measurements were recorded twice weekly from the treatment initiation until the termination of the study.
(§3) Mean, standard deviation and standard error of the mean were determined for tumor volume for all animal groups at all assessments. Student's t test was performed on tumor volumes at each measurement day, including at the end of the study, to determine whether there were any statistically significant differences between combination treatment groups and single monotherapy treatment groups.

[2] = test system: A-549 (lung cancer) cell line; assay: IC50 determination, MIT (tetrazolium) assay, 72 h (Example 18); type: cell-based, human; conditions: Homo sapiens, A549, 72 h
Method: (§4) Before plating, cell cultures were trypsinized and cell number estimated using an automated flow cytometer.
(§5) Cells were harvested and seeded in 96 well microtiter plates at the appropriate cell density (5,000-10,000 cells) in 150 μL of media and incubated for 24 hours to allow the cells to attach before drug addition.
(§6) After the incubation period (72 hours), 50 μL of MIT solution was added to each microtiter well and incubated for further 8 hours at 37° C. The culture medium was then removed and 50 μl, of DMSO were added to dissolve the MIT crystals. Optical densities were read at 540 nm on spectrophotometer microplate reader.
(§7) IC50 values were calculated from an average of two to four assays for each of the test agents.

[3] = test system: NCI-H460 (lung cancer) cell line; assay: as above; type: cell-based, human; conditions: Homo sapiens; NCI-H460, 72 hours of drug exposure
Method: as §4, §5, §6, §7

[4] = test system: NCI-H23 (lung cancer) cell line; assay: as above; type: cell-based, human; conditions: Homo sapiens; NCI-H23, 72 hours of drug exposure
Method: NCI-H23 cells were grown in RPMI supplemented with 10% Fetal Bovine Serum (FBS), 1% penicillin/streptomycin and 2 mM L-glutamine.
as §4, §5, §6, §7

[5] = test system: Hs746T tumors; type: in vivo, mice; conditions: mg/kg/day: PM00104 0.90 IV, cisplatin 5 IP, paclitaxel 10 IP
Source text: Female athymic nude mice (Harlan Sprague Dawley, Madison, Wis.) were utilized for all experiments. Animals were housed in ventilated rack caging with food and water ad libitum. The mice were acclimated for at least 5 days prior to tumor implantation with a tumor cell suspension. The Vehicle Control group contained 11 mice, groups 2-4 contained 7 mice and the rest of groups contained 8 mice.
The tumor model used in these studies was Hs746T cell line, which was obtained from the ATCC (Manassas, Va.).
(§8) Hs746T cells were grown in DMEM supplemented with 10% FBS, 1.5 g/L sodium bicarbonate, 4.5 g/L glucose, and 4 mM L-glutamine. Each animal was implanted SC on the right flank, using a trochar, with 5×10^6 Hs746T cells, from in vitro passage 18, in a 0.2 mL suspension of 50% Matrigel and 50% serum free medium, without antibiotics. Bacterial cultures were performed on aliquots of the cells prepared for implantation.
as §1, §2, §3

[6] = test system: 5637 human bladder carcinoma cell line; assay: IC50 determination, MTS assay, 72 h (Example 2); type: cell-based; conditions: Homo sapiens, 72 hours of drug exposure, read-out: IC50
Method: The following agents were evaluated in combination with PM00104: gemcitabine (Gemzar®) and cisplatin. The human bladder carcinoma cell lines selected for this assay were the following: 5637 and UM-UC-3 cell lines. 5637 cell line was grown in RPMI 1640 medium supplemented with 10% FBS, 1.5 g/L sodium bicarbonate, 4.5 g/L glucose, 10 mM HEPES, 1 mM sodium pyruvate, and 2 mM L-glutamine. UM-UC-3 cell line was grown in MEM Eagle's medium supplemented with 10% FBS and 2 mM L-glutamine.
a. […] It was used the same methodology as those disclosed in Example 1.
IC50 values were calculated from an average of three to four assays for each of the test agents.

[7] = test system: UM-UC-3 tumors; type: in vivo, mice; conditions: mg/kg/day: PM00104 0.90 IV, cisplatin 5 IP, gemcitabine 180 IP, paclitaxel 15 IP
Method: Female athymic nude mice (Harlan Sprague Dawley, Madison, Wis.) were utilized for all experiments. Animals were housed in ventilated rack caging with food and water ad libitum. The mice were acclimated for at least 5 days prior to tumor implantation with a tumor cell suspension.
The tumor model used in these studies was UM-UC-3 cell line, which was obtained from the ATCC (Manassas, Va.).
as §8, with “UM-UC-3” for “Hs746T”, “minimum essential medium (Eagle's)” for “DMEM”, “0.1 mM non-essential amino acids, 1 mM sodium pyruvate,” for “4.5 g/L glucose,”, “2” for “4”, “trochar and 1 cc syringe,” for “trochar,”, “17,” for “18,”
Treatments were initiated on DPI 15.
as §2, §3

[8] = day 16, PM00104 0.90, cisplatin 5, irinotecan 18, paclitaxel 25 mg/kg/day
[9] = day 20, PM00104 0.90, cisplatin 5, irinotecan 18, paclitaxel 25 mg/kg/day
[10] = day 23, PM00104 0.90, cisplatin 5, irinotecan 18, paclitaxel 25 mg/kg/day
[11] = day 26, PM00104 0.90, cisplatin 5, irinotecan 18, paclitaxel 25 mg/kg/day
[12] = day 29, PM00104 0.90, cisplatin 5, irinotecan 18, paclitaxel 25 mg/kg/day
[13] = day 33, PM00104 0.90, cisplatin 5, irinotecan 18, paclitaxel 25 mg/kg/day
[14] = day 40, PM00104 0.90, cisplatin 5, irinotecan 18, paclitaxel 25 mg/kg/day
[15] = day 48, PM00104 0.90, cisplatin 5, irinotecan 18, paclitaxel 25 mg/kg/day

COc1c(C)cc2c(c1O)[C@@H]1[C@@H]3Cc4c(OC(C)=O)c(C)c5c(c4[C@H](CNC(=O)/C=C/c4cccc(C(F)(F)F)c4)N3[C@@H](O)[C@H](C2)N1C)OCO5 [PM00104]
% Inhibition ([1]; day 16, PM00104 0.90, cisplatin 3, irinotecan 10, paclitaxel 12.5 mg/kg/day): 2.0%
% Inhibition [1, 8]: 2.0%
% T/C [1, 8]: 98.0%
% Inhibition ([1]; day 20, PM00104 0.90, cisplatin 3, irinotecan 10, paclitaxel 12.5 mg/kg/day): 6.1%
% Inhibition [1, 9]: 6.1%
% T/C [1, 9]: 93.9%
% Inhibition ([1]; day 23, PM00104 0.90, cisplatin 3, irinotecan 10, paclitaxel 12.5 mg/kg/day): 43.9%
% Inhibition [1, 10]: 43.9%
% T/C [1, 10]: 56.1%
% Inhibition ([1]; day 26, PM00104 0.90, cisplatin 3, irinotecan 10, paclitaxel 12.5 mg/kg/day): 59.4%
% Inhibition [1, 11]: 59.4%
% T/C [1, 11]: 40.6%
% Inhibition ([1]; day 29, PM00104 0.90, cisplatin 3, irinotecan 10, paclitaxel 12.5 mg/kg/day): 61.7%
% Inhibition [1, 12]: 61.7%
% T/C [1, 12]: 38.3%
% Inhibition ([1]; day 33, PM00104 0.90, cisplatin 3, irinotecan 10, paclitaxel 12.5 mg/kg/day): 72.0%
% Inhibition [1, 13]: 72.0%
% T/C [1, 13]: 28.0%
% Inhibition ([1]; day 40, PM00104 0.90, cisplatin 3, irinotecan 10, paclitaxel 12.5 mg/kg/day): 81.8%
% Inhibition [1, 14]: 81.8%
% T/C [1, 14]: 18.2%
% Inhibition ([1]; day 48, PM00104 0.90, cisplatin 3, irinotecan 10, paclitaxel 12.5 mg/kg/day): 84.4%
% Inhibition [1, 15]: 84.4%
% T/C [1, 15]: 15.6%
IC50 [2]: 7.2 nM
IC50 [3]: 7.2 nM
IC50 [4]: 5 nM
% Inhibition ([5]; day 16): 2.0%
% T/C on day ([5]; day 16): 98.0%
% Inhibition ([5]; day 20): 34.4%
% T/C on day ([5]; day 20): 65.6%
% Inhibition ([5]; day 23): 49.7%
% T/C on day ([5]; day 23): 50.3%
% Inhibition ([5]; day 26): 57.2%
% T/C on day ([5]; day 26): 42.8%
% Inhibition ([5]; day 29): 59.1%
% T/C on day ([5]; day 29): 40.9%
% Inhibition ([5]; day 33): 49.8%
% T/C on day ([5]; day 33): 50.2%
% Inhibition ([5]; day 36): 31.4%
% T/C on day ([5]; day 36): 68.6%
IC50 [6]: 5.6 ng/mL
% Inhibition ([7]; day 15): −0.8%
% T/C on day ([7]; day 15): 100.8%
% Inhibition ([7]; day 20): 52.8%
% T/C on day ([7]; day 20): 47.2%
% Inhibition ([7]; day 22): 52.2%
% T/C on day ([7]; day 22): 47.8%
% Inhibition ([7]; day 26): 60.2%
% T/C on day ([7]; day 26): 39.8%
% Inhibition ([7]; day 29): 47.4%
% T/C on day ([7]; day 29): 50.4%
% Inhibition ([7]; day 34): 50.7%
% T/C on day ([7]; day 34): 49.3%
% Inhibition ([7]; day 40): 37.1%
% T/C on day ([7]; day 40): 62.9%
% Inhibition ([7]; day 43): 35.1%
% T/C on day ([7]; day 43): 64.9%
